This note sets out measurements from BindingDB's records for doi:10.1021/jm9910371 (Uppsala University, 1999).

Structures are written as SMILES.

The target of the test is T1, Dimer of Gag-Pol polyprotein [501-599] (Human immunodeficiency virus 1, UniProt P03367).
T1 construct: 501-599
Put plainly: Protease Inhibition Assay. The conditions noted are these: pH 5; 30 °C. The protocol:
Ki values were determined by using a fluorescent substrate (DABCYL-gamma-Abu-[…]EDANS). All incubations were performed at 30°C in 0.1 M sodium acetate 1 M NaCl 1 mM DTT 1 mM EDTA 3% DMSO (pH 5.0) by using 5 uM substrate and the indicated enzyme concentrations ([E]). The enzyme concentration (A280) was determined by absorption measurements.

By Ki is commonly meant the equilibrium dissociation constant of an inhibitor or competing ligand from its target. Higher therefore signals weaker binding. Compound `CNC(=O)[C@@H](NC(=O)[C@H](OCc1ccccc1)[C@H](O)[C@@H](O)[C@@H](OCc1ccccc1)C(=O)N[C@H](C(=O)NC)C(C)C)C(C)C` [1-Valine Methylamide deriv. 1] returned an inhibition constant Ki of 400 pM.
In the case of `CNC(=O)[C@@H](NC(=O)[C@H](OCc1ccc(C2CCCC(=O)C2=O)cc1)[C@H](O)[C@@H](O)[C@@H](OCc1ccc(C2CCCC(=O)C2=O)cc1)C(=O)N[C@H](C(=O)NC)C(C)C)C(C)C` (stereo partly drawn) [N1,N6-Bis[(1S)-2-methyl-1-(methylcarbamoyl)pro-pyl](2R,3R,4R,5R)-2,5-bis[4-(3-cyclohexane-1,2-dionyl)benzyloxy]-3,4-dihydroxyhexanediamide] it was 300 pM.
